Laboratory results as given in PubChem BioAssay (NCI).
Several values for one entry are separate records, joined by “and”; a condition that tells them apart may be missing. Equal values may be shown once.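 Growth conditions: 96-well plates. Treatment: test compound, 48 hours, 5 concentrations. Analysis: linear interpolation between bracketing concentrations; unreached endpoints set to highest concentration. GI50 marks 50% less growth. The concentration for full growth arrest is given as TGI.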

Key:
Assay in all cases: DTP human tumour cell line panel, 48 h
[1] = test system: A549 NSCLC
[2] = test system: U251 CNS
[3] = test system: A498 renal
[4] = test system: HCT-15 colon
[5] = test system: RXF 393 renal
[6] = test system: SF-539 CNS
[7] = test system: UO-31 renal
[8] = test system: M14 melanoma
[9] = test system: SK-MEL-2 melanoma
[10] = test system: MCF7 breast

Compound | TGI [1] | TGI [2] | GI50 [3] | TGI [3] | TGI [4] | TGI [5] | TGI [6] | TGI [7] | GI50 [8] | TGI [8] | TGI [9] | GI50 [1] | GI50 [10] | TGI [10] | GI50 [2] | GI50 [4] | GI50 [5] | GI50 [6] | GI50 [7] | GI50 [9]
O=C(C=Nc1ccccc1S)c1ccco1 | 22.4 µM | 18.7 µM | > 100 µM | > 100 µM | 27.4 µM | 29 µM | 27.3 µM | 6.77 µM | 15 µM | 28.7 µM | 33.1 µM | – | – | – | – | – | – | – | – | –
O=C(c1ccc2ccccc2c1)c1c(C(F)(F)F)n([O-])c2cc(C(F)(F)F)ccc2[n+]1=O | 3.51 µM | 3.29 µM | – | – | 3.4 µM | 3.16 µM | 3.23 µM | 2.7 µM | 1.65 µM | 3.1 µM | 3.86 µM | 1.66 µM | 1.63 µM | 3.49 µM | 1.75 µM | 1.69 µM | 1.5 µM | 1.71 µM | 1.36 µM | 2.02 µM
COc1cc(/C=C2\NC(=O)C3Cc4c(OC)c(C)c(OC)c(OC)c4C2N3C)c(OC)c(C)c1OC (configuration not stated) | > 100 µM | > 100 µM | – | > 100 µM | – | > 100 µM | > 100 µM | > 100 µM | – | > 100 µM | – | – | – | – | – | – | – | – | – | –
CC(=O)[CH-]C(C)=O.CC(=O)[CH-]C(C)=O.[Cl-].[O]=[V] | > 100 µM | 59 µM | – | – | > 100 µM | 24.6 µM | 37.5 µM | > 100 µM | 11.4 µM | 31 µM | 77.1 µM | 36.3 µM | – | – | 22.5 µM | 36.8 µM | 10.9 µM | 17.5 µM | 63.3 µM | 26.8 µM
O=C1c2cc3c(cc2-c2c1c1ccc(F)cc1c(=O)n2C[C@H](O)[C@H](O)[C@H](O)CO)OCO3 | – | 0.258 µM | 0.142 µM | 0.327 µM | 0.724 µM | 0.502 µM | – | – | 0.18 µM | 4 µM | 0.596 µM | – | 0.0259 µM | 0.215 µM | 0.05 µM | 0.199 µM | 0.193 µM | – | – | 0.233 µM
[Co].[O-]c1cccnc1C=Nc1ccccc1.[OH3+] | > 100 µM | > 100 µM | > 100 µM | > 100 µM | > 100 µM | – | > 100 µM | > 100 µM | > 100 µM | > 100 µM | > 100 µM | > 100 µM | – | – | > 100 µM | 50.4 µM | – | > 100 µM | 56.2 µM | > 100 µM
CCOC(=O)c1c(-c2ccc(OC)c(O)c2)c(C#N)c(=S)n(C2OC(COC(C)=O)C(OC(C)=O)C(OC(C)=O)C2OC(C)=O)c1-c1ccccc1 (configuration not stated) | > 100 µM | > 100 µM | – | > 100 µM | > 100 µM | > 100 µM | – | > 100 µM | 18.9 µM and > 100 µM | 40.6 µM and > 100 µM | – | – | 28.2 µM and > 100 µM | > 100 µM | – | 43.1 µM and > 100 µM | – | – | 37 µM and > 100 µM | –
CCOC(=O)CNC(=O)OCc1ccccc1 | > 100 µM | > 100 µM | – | > 100 µM | > 100 µM | – | > 100 µM | > 100 µM | – | > 100 µM | > 100 µM | – | – | – | – | – | – | – | – | –
O=C(O)CCSC(=O)Nc1cccc2ccccc12 | > 100 µM | > 100 µM | – | > 100 µM | > 100 µM | > 100 µM | > 100 µM | > 100 µM | – | > 100 µM | – | – | – | – | – | – | – | – | – | –
CN=C1CN=C(OP(=O)(N2CCOCC2)N2CCOCC2)c2cc(Cl)ccc2N1 | > 100 µM | > 100 µM | – | > 100 µM | > 100 µM | > 100 µM | > 100 µM | > 100 µM | – | > 100 µM | > 100 µM | – | – | – | – | – | – | – | – | –
O=C(CC1(O)C(=O)Nc2ccccc21)c1ccc(Cl)cc1Cl (configuration not stated) | > 100 µM | – | – | > 100 µM | > 100 µM | > 100 µM | > 100 µM | > 100 µM | – | > 100 µM | > 100 µM | – | – | – | – | – | – | – | – | –
O=C(CCCC(=O)N/N=C/c1cc(Cl)ccc1O)N/N=C\c1cc(Cl)ccc1O | > 100 µM | > 100 µM | 55 µM | > 100 µM | > 100 µM | – | 33.5 µM | > 100 µM | 3.21 µM | > 100 µM | > 100 µM | 3.69 µM | 2.54 µM | > 100 µM | 2.31 µM | 0.574 µM | – | 2.66 µM | 1.24 µM | > 100 µM
CO/C=C(\Br)c1ccc2c(c1)OCO2 | > 100 µM | > 100 µM | – | > 100 µM | – | > 100 µM | > 100 µM | > 100 µM | – | > 100 µM | > 100 µM | – | – | – | – | – | – | – | – | –
CC[C@]12C=CCN3CC[C@@]4(c5ccc(OC)cc5N(C)[C@H]4[C@@](O)(C(=O)OC)[C@@H]1OC(=O)CCC(=O)O[C@H]1CC[C@H]4[C@@H]5CC[C@H]6CC(=O)CC[C@]6(C)[C@H]5CC[C@]14C)[C@@H]32 | 35.3 µM | 22.8 µM | 4.13 µM | 30.8 µM | > 100 µM | 6.73 µM | > 100 µM | – | 2 µM | 22.2 µM | 6.18 µM | 4.19 µM | 2.42 µM | > 100 µM | 3.74 µM | 2.44 µM | 2.31 µM | 3.89 µM | – | 2.49 µM
COc1ccc(C2=NN(C(C)=O)C(c3ccc(Oc4ccnc5cc(Cl)ccc45)c(OC)c3)C2)cc1 (configuration not stated) | – | 38.4 µM | 15.2 µM | 92.2 µM | > 100 µM | 41 µM | – | > 100 µM | 93 µM | > 100 µM | 26.7 µM | – | 29.4 µM | > 100 µM | 4.51 µM | > 100 µM | 5.04 µM | – | > 100 µM | 7.13 µM
C/C(=C\C(C[C@](C)(O)C(O)CCC#C[Si](C)(C)C)S(=O)(=O)c1ccccc1)CC/C=C/CO[Si](C)(C)C(C)(C)C (some centres not stated) | 30.2 µM | 26.5 µM | – | 31.9 µM | 34.4 µM | 31.3 µM | 37 µM | 36.4 µM | – | 34 µM | 44.1 µM | – | – | – | – | – | – | – | – | –
CCC[CH2][Sn]1([CH2]CCC)[O]CC[S]1 | 6.03 µM | 1.64 µM | – | – | 2.25 µM | 0.332 µM | 2.03 µM | 2.54 µM | 0.872 µM | 2.68 µM | 1.01 µM | 2.21 µM | – | – | 0.564 µM | 0.799 µM | 0.156 µM | 0.736 µM | 1.28 µM | 0.298 µM
